Our source for the IC50 values is BindingDB's records for doi:10.7270/Q2KH0KWR (Burnham Center For Chemical Genomics, 2012).

For orientation: IC50 means the point on the concentration scale where inhibition reaches its midpoint.

The target in the first test is T1, Tyrosine-protein phosphatase non-receptor type 5 (Homo sapiens, UniProt P54829).
T1 sequence (P54829 whole entry): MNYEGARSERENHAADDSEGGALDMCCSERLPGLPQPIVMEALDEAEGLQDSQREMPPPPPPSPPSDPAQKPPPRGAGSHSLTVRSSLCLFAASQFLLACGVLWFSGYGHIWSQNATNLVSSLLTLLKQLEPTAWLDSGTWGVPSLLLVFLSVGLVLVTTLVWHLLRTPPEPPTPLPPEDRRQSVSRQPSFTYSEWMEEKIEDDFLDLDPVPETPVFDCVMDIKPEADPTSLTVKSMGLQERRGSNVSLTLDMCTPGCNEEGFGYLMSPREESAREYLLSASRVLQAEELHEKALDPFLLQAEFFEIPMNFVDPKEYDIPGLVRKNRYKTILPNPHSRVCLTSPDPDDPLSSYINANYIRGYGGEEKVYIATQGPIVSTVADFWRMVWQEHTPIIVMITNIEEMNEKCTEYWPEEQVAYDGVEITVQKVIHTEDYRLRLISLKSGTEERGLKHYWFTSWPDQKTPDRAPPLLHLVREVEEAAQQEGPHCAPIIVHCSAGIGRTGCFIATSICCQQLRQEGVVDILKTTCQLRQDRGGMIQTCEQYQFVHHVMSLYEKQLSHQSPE
Put plainly: STEP phosphatase inhibitor potency, dose response, orthogonal assay for STEP inhibitor project, biochemical, colorimetric absorbance (AID 624207).
Conditions: not given
`O=C(N/N=C/C1C=CC=CC1=O)c1cccc([N+](=O)[O-])c1` (configuration not stated) [MLS002667988] returned an IC50 of 15.8 µM.
On the same count and under the same terms, the same measure for `O=C(O)Cc1cccc(O)c(=O)c1C(=O)O` [MLS002703575]: > 80 µM; for `O=C(Nc1cccc2c(=O)[nH][nH]c(=O)c12)c1ccc([N+](=O)[O-])cc1` [MLS003171605]: > 80 µM.
Same read-out and setting: for `CCOC(=O)c1sc2nc3c(SCC(=O)O)cc(C(=O)c4ccccc4O)cn3c(=O)c2c1C` [MLS-0266851.0001] the value was > 80 µM; for `NC(=NOC(=O)c1cccc2ccccc12)c1cccc([N+](=O)[O-])c1` [N'-(1-naphthoyloxy)-3-nitrobenzenecarboximidamide], > 80 µM; for `COc1cc(Cl)cc(C=NNC(=O)c2ccc3c(c2)OCO3)c1O` [N'-[(E)-(3-chloro-5-methoxy-6-oxo-1-cyclohexa-2,4-dienylidene)methyl]-1,3-benzodioxole-5-carbohydrazide], 23.3 µM.
Same read-out and setting: for `Cn1cc(CC(=O)Nc2cccc(C#N)c2)c2ccccc21` [N-(3-cyanophenyl)-2-(1-methyl-1H-indol-3-yl)acetamide] the value was > 80 µM; for `CCOc1ccc(CCNC(=O)CS(=O)(=O)Cc2nc(-c3ccc(OC)cc3)oc2C)cc1` [N-[2-(4-ethoxyphenyl)ethyl]-2-[[2-(4-methoxyphenyl)-5-methyl-1,3-oxazol-4-yl]methylsulfonyl]ethanamide], > 80 µM; for `COc1ccccc1NS(=O)(=O)c1cc(NC(=O)c2sccc2C)ccc1N1CCCC1` [N-[3-[(2-methoxyphenyl)sulfamoyl]-4-(1-pyrrolidinyl)phenyl]-3-methyl-2-thiophenecarboxamide], 6.95 µM.
With `CCCCN(CC)Cc1ccc(CN=C(S)Nc2c(C)cc(C)cc2C)o1` [N-[(5-{[butyl(ethyl)amino]methyl}-2-furyl)methyl]-N'-mesitylthiourea], the concentration for half-maximal inhibition (IC50) is > 80 µM.
Still for that read-out and setting: for `O=C(N/N=C/c1ccc(Br)s1)c1cccc([N+](=O)[O-])c1` [N-[(E)-(5-bromanylthiophen-2-yl)methylideneamino]-3-nitro-benzamide] the value was 14.9 µM; for `O=C(COc1ccc([CH+][N-]NC(=O)c2ccncc2)cc1)Nc1ccc([N+](=O)[O-])cc1` [N-[(E)-[4-[2-[(4-nitrophenyl)amino]-2-oxidanylidene-ethoxy]phenyl]methylideneamino]pyridine-4-carboxamide], > 80 µM; for `O=C(N/N=C/c1ccoc1)c1cc(O)cc(O)c1` [N-[(E)-furan-3-ylmethylideneamino]-3,5-dihydroxybenzamide], > 80 µM.
On the same count and under the same terms, for `Cc1cc(C(=O)NN=Cc2ccc(-c3ccc([N+](=O)[O-])cc3Cl)o2)[nH]n1` [N-[[5-(2-chloro-4-nitrophenyl)furan-2-yl]methylideneamino]-5-methyl-1H-pyrazole-3-carboxamide] the value was > 80 µM.
Same read-out and setting: for `O=S(=O)(Nc1ccccc1)c1cccc2nsnc12` [N-phenyl-2,1,3-benzothiadiazole-4-sulfonamide] the value was > 80 µM; for `COc1ccc(OC)c(-n2c(O)c3o[nH]c(-c4ccccc4Cl)c-3c2=O)c1` [SMR000046218], > 80 µM.
On to `O=Cc1cn(-c2ccccc2)nc1-c1cc2cc(O)ccc2oc1=O` [SMR000152596], for which the IC50 is > 80 µM.
For `CCN(c1ccccc1)S(=O)(=O)c1cc(C(=O)OC(C)C(=O)Nc2ccc3c(c2)OCCO3)ccc1C` (configuration not stated) [SMR000242949], the IC50 is > 80 µM.
Still for that read-out and setting: the same measure for `COc1ccccc1Nc1ccc([N+](=O)[O-])cc1N` [SMR000260154]: > 80 µM.
Same read-out and setting: the same measure for `O=C(NC1CCCCCC1)C(=S)NC1CCCCC1` [SMR000296231]: > 80 µM.
Still for that read-out and setting: for `N=C1S/C(=C\c2ccc(O)cc2)C(=O)N1c1ccc(F)cc1` [SMR000298434] the value was > 80 µM.
In the case of `O=C(COc1ccc([N+](=O)[O-])cc1)Nc1nnc(-c2cccnc2)s1` [SMR000385697], the 50% inhibitory concentration (IC50) was > 80 µM.
Still for that read-out and setting: the same measure for `Cc1ccc(NC(=O)CN2C(=O)S/C(=C\c3ccc(OCC(=O)O)c(Br)c3)C2=O)cc1` [SMR000477386]: > 80 µM; for `Cc1ccc(NC(=O)CCn2c(=S)oc3ccccc32)cc1F` [SMR000564947]: > 80 µM; for `CCOC(=O)CC(NS(=O)(=O)c1ccc2ncc(C(=O)O)c(O)c2c1)c1ccc(OCC)c(OC)c1` (configuration not stated) [SMR000621519]: > 80 µM.
Still for that read-out and setting: the same measure for `O=C(NN=Cc1ccccc1O)NN=Cc1ccccc1O` [SMR001556943]: 32.5 µM; for `CC(=NNC(=S)N1CC2CCC(CC2)C1)c1cccc(C)n1` [SMR001565418]: > 80 µM.
Turning to `CCN(c1ccccc1)S(=O)(=O)c1cc(C(=O)OCC(=O)c2c(N)n(C)c(=O)n(C)c2=O)ccc1C` [[2-(4-amino-1,3-dimethyl-2,6-dioxopyrimidin-5-yl)-2-oxoethyl] 3-[ethyl(phenyl)sulfamoyl]-4-methylbenzoate], the IC50 is > 80 µM.
Still for that read-out and setting: the same measure for `COc1ccc(CN=Nc2nc(O)c(CC(=O)O)s2)cc1OCc1ccc(Cl)cc1Cl` [[2-({3-[(2,4-dichlorobenzyl)oxy]-4-methoxybenzylidene}hydrazono)-4-oxo-1,3-thiazolidin-5-yl]acetic acid]: 13.6 µM.
Regarding `Cc1ccccc1N1CCN(C(=S)c2ccc(-c3cccc([N+](=O)[O-])c3)o2)CC1` [[4-(2-methylphenyl)-1-piperazinyl]-[5-(3-nitrophenyl)-2-furanyl]methanethione], the IC50 was > 80 µM.
Compound `NS(=O)(=O)c1ccccc1` [sodium;phenylsulfonylazanide] came in with a 50% inhibitory concentration (IC50) of 73 µM.

The same test, now with this note: inactive by the depositor's call.
Turning to `S=C(c1cn(CCOc2ccccc2)c2ccccc12)N1CCCC1` [MLS-0109562.0001], the IC50 stood at 41.3 µM. In other words, the double-digit micromolar range.
The same measure, in the same setting: the same measure for `COc1cc(Cl)ccc1N=C(S)N(CCCN1CCOCC1)Cc1cn(C)c2ccccc12` [N'-(4-chloro-2-methoxyphenyl)-N-[(1-methyl-1H-indol-3-yl)methyl]-N-(3-morpholin-4-ylpropyl)thiourea]: 34.4 µM.
Same read-out and setting: for `COc1ccc(Cl)cc1N=C(S)N(CCCN1CCOCC1)Cc1cn(C)c2ccccc12` [N'-(5-chloro-2-methoxyphenyl)-N-[(1-methyl-1H-indol-3-yl)methyl]-N-(3-morpholin-4-ylpropyl)thiourea] the value was 36.9 µM; for `COc1cccc(-c2cc(C(=O)Nc3nc4ccccc4s3)c3ccccc3n2)c1` [N-(1,3-benzothiazol-2-yl)-2-(3-methoxyphenyl)-4-quinolinecarboxamide], 78.3 µM.
On the same count and under the same terms, the same measure for `COc1ccc(NC(=S)N2CCC(N(C)CC3CCCO3)CC2)cc1Cl` (configuration not stated) [N-(3-chloranyl-4-methoxy-phenyl)-4-[methyl(oxolan-2-ylmethyl)amino]piperidine-1-carbothioamide]: 40.3 µM; for `CCCCC(=O)Nc1ccc(C(=O)NNC(=O)c2ccc(C)c(Br)c2)cc1` [N-(4-{[2-(3-bromo-4-methylbenzoyl)hydrazino]carbonyl}phenyl)pentanamide]: 53.8 µM; for `CN1CCN(C(S)=Nc2ccc(S(N)(=O)=O)cc2)CC1` [N-[4-(aminosulfonyl)phenyl]-4-methyl-1-piperazinecarbothioamide]: 41.5 µM.
`O=C(N/N=C/c1cccc(Br)c1)c1ccc(N2CCCC2=O)cc1` [N-[(E)-(3-bromophenyl)methylideneamino]-4-(2-oxidanylidenepyrrolidin-1-yl)benzamide] came in with an IC50 of 22.9 µM. This IC50 lies about 1.8-fold lower than the previous one.
Same read-out and setting: for `O=C(COc1ccc(/C=N/NC(=O)c2ccccc2O)cc1)Nc1ccccc1` [N-[(E)-[4-(2-anilino-2-oxoethoxy)phenyl]methylideneamino]-2-hydroxybenzamide] the value was 23.6 µM; for `CCN1CCN(C(=S)c2ccc(Cl)c(Cl)c2)CC1` [SMR000143195], 39.3 µM; for `O=C(O)CCC(/N=N/c1ccc(S(=O)(=O)N2CCCC2)cc1[N+](=O)[O-])c1cccs1` (configuration not stated) [SMR000151450], 32.8 µM.
On the same count and under the same terms, for `CCN1CCN(C(=S)c2ccc(Br)cc2)CC1` [SMR000198085] the value was 63.9 µM; for `N=C(NCc1ccc2c(c1)OCO2)NC(=O)c1ccccc1` [SMR000293067], 77 µM; for `CCOC(=O)N1CCC(N(CCN(C)C)C(=S)Nc2ccc(Oc3ccccc3)cc2)CC1` [SMR000311544], 27 µM.
The same measure, in the same setting: the same measure for `COc1cc(/C=N/NC(=O)c2ccccc2O)ccc1OCC(=O)Nc1ccccc1` [SMR000515267]: 44.7 µM; for `COC(=O)c1ccccc1CSc1nsc(/C=C/N(C)C)c1C#N` [SMR000549393]: 33.5 µM; for `Cc1ccc(NC(=O)c2ccc3nc(N4CCOCC4)sc3c2)c(Cl)c1` [SMR000624920]: 22.4 µM.
For `Cc1c(C)c2ccc(OCC(=O)Nc3ccc(S(N)(=O)=O)cc3)c(C)c2oc1=O` [SMR000652408], the IC50 came out at 36.1 µM.
On the same count and under the same terms, for `Cc1sc2nc(CSC(C)C(=O)Nc3ccc(Cl)cn3)nc(O)c2c1C` (configuration not stated) [SMR001268769] the value was 38.4 µM; for `CCOC(=O)N1CCC(N(CCN(C)C)C(=S)Nc2cc(Cl)ccc2C)CC1` [ethyl 4-[(5-chloranyl-2-methyl-phenyl)carbamothioyl-[2-(dimethylamino)ethyl]amino]piperidine-1-carboxylate], 77.1 µM; for `CCOC(=O)c1c(NC(=O)OC)sc(C(=O)N(CC)CC)c1C` [ethyl 5-(diethylcarbamoyl)-2-(methoxycarbonylamino)-4-methylthiophene-3-carboxylate], 44.3 µM.
